Assay results reported in patent US20200246365A1, “COMPOUNDS, PHARMACEUTICAL COMPOSITIONS AND USE THEREOF AS INHIBITORS OF RAN GTPASE” (THE ROYAL INSTITUTION FOR THE ADVANCEMENT OF LEARNING / …, priority 2017, published 2020).

Tests used:
[1] = tested on: TOV112D cells; assay: Clonogenic survival assay, TOV112D; format: cell-based, human; details: for IC50: Homo sapiens, read-out: IC50 value for the TOV112D cell line by clonogenic assay; for IC50 / IC50 value for the TOV112D cell line by clonogenic assay: TOV112D
Description: (§1) The human EOC cell lines used (TOV81D, TOV112D, OV90, TOV21G, OV866(2), TOV1369(R), OV1369(R2), TOV1946, OV1946, TOV2295(R), OV4485) were derived in our laboratory from patients' tumors (TOV) or ascites (OV). All EOC cell lines were maintained in a low oxygen condition of 7% O2 and 5% CO2 and grown in OSE medium (Wisent, Montreal, QC) supplemented with 10% FBS (Wisent), 0.5 μg/mL amphotericin B (Wisent) and 50 μg/mL gentamicin (Life Technologies Inc., Burlington, ON). The human retinal epithelial cell line ARPE-19 was purchased from American Type Culture Collection (ATCC, Manassas, Va.) and maintained in DMEM-F12 (Wisent) supplemented with 10% FBS (Wisent), 0.5 μg/mL amphotericin B (Wisent) and 50 μg/mL gentamicin (Life Technologies Inc.).
(§2) Clonogenic assays were performed as previously described. Colonies were counted under a stereo microscope and reported as percent of control. IC50 values were determined using Graph Pad Prism 5 software (GraphPad Software Inc., San Diego, Calif.). Each experiment was performed in duplicate and repeated three times. Sensitivity of the cell lines to small molecules inhibitors of Ran was assessed using a concentration range of 0-50 μM.
(§3) Small molecules inhibitors of Ran were dissolved in 100% dimethyl sulfoxide (DMSO) and then further diluted in complete culture media for in vitro experiments. Drugs were added 24 hours after seeding.

[2] = tested on: TOV112D cells; assay: IncuCyte cell proliferation assay, TOV112D; format: cell-based, human; details: for cell growth of TOV112D (new M36 analogs screen): 40 μM, day 4
Description: as §1
(§4) Cells (2,000 cells/well) were plated in a 96-well plate. The next day, compounds were added at the indicated concentrations. Following treatment, cell confluence was imaged by phase contrast using the IncuCyte live cell monitoring system (Essen BioScience, Ann Arbor, Mich.). Frames were captured at 2-hour intervals using a 10× objective. For Ran knock down experiments, cells were seeded in a 96-well plate (4,000 cells/well) directly after transfection. Cell confluence monitoring started the next day as described above.
as §3

[3] = tested on: ARPE-19 cells; assay: IncuCyte cell proliferation assay, ARPE-19; format: cell-based, human; details: for cell growth of ARPE-19 (new M36 analogs screen): 40 μM, day 4; for effect on normal ARPE-19 cells at low concentrations: 0.5 to 2.5 μM
Description: as §1, §4, §3

[4] = tested on: breast cancer cell lines (MDA231, MDA468, HCC1806, ZR75, T47D, BT474, HCC1954); assay: Cell proliferation, breast cancer cell lines; format: cell-based
[5] = molecular target: Ran-GTP (Homo sapiens, UniProt P62826); assay: Ran activation (Ran-GTP pull-down) assay in TOV112D cells; format: cell-based; details: 1 hour treatment, vs DMSO
Description: Cells were seeded onto 6-well tissue culture plates in such a way that cell confluence reaches approximately 70% the day of experiment. The day of experiment cells were treated for 1 hour with the indicated compounds prior to protein extraction and quantification. Assays were performed using the Ran activation assay kit (Cell Biolabs). Briefly, 400 μg of lysates were incubated for one hour at 4° C. with agarose beads conjugated to RANBP1, which specifically binds Ran-GTP. Beads were pelleted, washed, and re-suspended in SDS-PAGE buffer, followed by immunoblotting with an anti-Ran antibody.

[6] = molecular target: T1, recombinant human Ran protein (Homo sapiens, UniProt P62826); assay: Surface Plasmon Resonance (SPR) binding to immobilized Ran
T1 construct: Recombinant Ran protein was purchased from Sigma-Aldrich Inc. (R3152)
Description: SPR experiments were carried out using the Biacore 3000 system. Recombinant Ran protein was purchased from Sigma-Aldrich Inc. (R3152). The running buffer contained PBS, pH7.4, 1 mM GDP, 2 mM MgCl2 and 0.2% DMSO. The regeneration buffer contained 10 mM glycine (pH 2.5). Ran-GDP protein was immobilized onto a CM5 chip; samples of compounds in running buffer were injected at 30 μL/min for 10 minutes contact time followed by 5 minutes regeneration. Kd was calculated using the GraphPad Prism 5 software.

[7] = tested on: ARPE-19 cells; assay: Clonogenic survival assay, ARPE-19; format: cell-based, human; details: for effect on normal ARPE-19 cell line in detailed clonogenic assay: different concentrations
Description: as §1, §2, §3

[8] = tested on: other aneuploid EOC cells; assay: IncuCyte cell proliferation assay, other aneuploid EOC cell lines; format: cell-based, human; details: 80 μM
Description: as §1, §4, §3

[9] = tested on: cleaved PARP; assay: Apoptosis by PARP cleavage (Western blot); format: cell-based, human; details: 96 hours after treatment
Description: Cells were lysed with RIPA buffer containing protease inhibitors. Whole cell lysates were run through a Bradford assay (Thermo Fisher Scientific) for protein quantification. Around 25-50 μg of proteins were separated onto 12.5% SDS-PAGE and transferred onto nitrocellulose membranes. The resultant blots were probed with Ran (1:10000, sc-271376 Santa Cruz Biotechnology, Dallas, Tex.), cleaved PARP (1:1000, #9541, Cell Signaling Technology Inc., Danvers, Mass.), GAPDH (1:2500, #2118, Cell Signaling Technology Inc.) or beta-actin (1:50000, ab6276, Abcam Inc., Toronto, ON, Canada) primary antibodies overnight at 4° C. then with peroxidase-conjugated secondary antibodies for 2 hours at room temperature. Proteins were detected using enhanced chemiluminescence (Thermo Fisher Scientific).

[10] = Pharmacokinetics in CD1 mice; format: in vivo; details: 50 mg/kg
Description: For the pharmacokinetic studies, 6-week-old female CD1 mice (Charles River laboratories, Senneville, QC, Canada) received a single intravenous or intraperitoneal injection of M36 or QR20 (50 mg/kg), dissolved in DMSO 10%, Kolliphor® EL 10%, PEG-400 20% and PBS 60% (QR20 was also dissolved in DMSO 10%, PBS 90%). For each time point (15 minutes, 30 minutes, […], 1 hour, 2 hours and 6 hours), 3 mice were sacrificed and blood was collected by cardiac puncture. Thereafter, the plasma level of each compound was measured by mass spectrometry.

[11] = Tolerance test in NRG mice; format: in vivo; details: daily i.p. 75 mg/kg for 15 days
Description: For the tolerance test, M36 and QR20 compounds were dissolved in DMSO 10%, Kolliphor® EL 10%, PEG-400 20% and PBS 60% and injected intraperitoneally into 6-week-old female Nod Rag Gamma (NRG) mice (The Jackson laboratory, Bar Harbor, Me.) daily at 75 mg/kg. During this study, mice (n=3) were monitored for survival and weight loss/gain.

Row | Compound | IC50 [1] | cell growth of TOV112D (new M36 analogs screen) [2] | cell growth of ARPE-19 (new M36 analogs screen) [3] | effect on normal ARPE-19 cells at low concentrations [3] | active Ran-GTP levels (pull-down) [5] | other results
1 | c1ccc(CNCc2cc(CNCc3ccccc3)cc(CNCc3ccccc3)c2)cc1 [M51] | ~0.66 µM | completely inhibited cell growth | completely inhibited cell growth | did not affect normal cells |  | TOV112D cell growth at low concentrations ([2]; 0.5, 1, 2.5 μM): inhibited TOV112D cell growth; effect on breast cancer cell lines [4]: effective in one triple negative breast cancer cell line
2 | NC(=S)[C@H]1O[C@H](COCc2ccccc2F)[C@@H](OCc2ccccc2F)[C@H]1OCc1ccccc1F [M46] | 12.5 ± 0.36 µM |  |  |  | weaker than that of M36 | 
3 | NC(=S)[C@@H]1C[C@H](COC(=O)c2ccccc2)[C@@H](OC(=O)c2ccccc2)[C@H]1OC(=O)c1ccccc1 [M26] |  |  |  |  | marked decrease in Ran-GTP levels | binding to the immobilized Ran protein ([6]; different compound concentrations, reached saturation): concentration-dependent binding; colony formation of TOV112D cells ([1]; single dose 10 μM): specifically inhibited colony formation of EOC; colony formation of ARPE-19 cells ([7]; single dose 10 μM): not normal cells
4 | COc1ccc(CN(C)Cc2cc(CN(C)Cc3ccc(OC)cc3)cc(CN(C)Cc3ccc(OC)cc3)c2)cc1 [M55] | 4.16 µM | discriminative effect between normal ARPE-19 and aneuploid TOV112D cells |  |  |  | cell growth of TOV112D, detailed proliferation assay ([2]; 5, 10, 20 μM): specifically inhibit cell growth of the TOV112D cells even at a low concentration of 5 μM
5 | COc1ccc(CNCc2cc(CNCc3ccc(OC)cc3)cc(CNCc3ccc(OC)cc3)c2)cc1 [M52] |  | completely inhibited cell growth | completely inhibited cell growth | also affected normal ARPE-19 cells |  | IC50 value for the TOV112D cell line by clonogenic assay [1]: low IC50 values
6 | Fc1ccc(CNCc2cc(CNCc3ccc(F)cc3)cc(CNCc3ccc(F)cc3)c2)cc1 [M48] |  | completely inhibited cell growth | completely inhibited cell growth | also affected normal ARPE-19 cells |  | IC50 value for the TOV112D cell line by clonogenic assay [1]: low IC50 values
7 | Oc1ccc(CCCCCCc2ccc(O)cc2)cc1 [V188] | 7.6 ± 0.32 µM |  |  |  |  | Kd ([6]; Ran-GDP immobilized on CM5 chip): 0.38 µM
8 | COc1ccc(CN2CCN(Cc3ccc(OC)cc3)CC2)cc1 [compound 1292] | 15 ± 0.37 µM |  |  |  | concentration-dependent decrease in Ran-GTP levels | effect on normal ARPE-19 cell line in detailed clonogenic assay [7]: did not have any effect; cell proliferation of other aneuploid EOC cells [8]: inhibited cell proliferation; apoptosis (cleaved PARP on Western blot) [9]: induction of apoptosis
9 | c1ccc(CN2CCN(C(c3ccccc3)C3CCCCC3)CC2)cc1 (stereo not shown) [R20] | 9.91 ± 0.36 µM |  |  |  | concentration-dependent decrease in Ran-GTP levels | effect on normal ARPE-19 cell line in detailed clonogenic assay [7]: no effect; cell proliferation of TOV112D (1292 analogs screen) ([2]; 80 μM, vs normal ARPE-19): greater efficacy in inhibiting cell proliferation; cell proliferation of other aneuploid EOC cells [8]: inhibited cell proliferation
10 | c1ccc(CN2CCN(C(c3ccccc3)C3CCCCC3)CC2)cc1 (stereo not shown) [QR20] |  |  |  |  |  | TOV112D cell proliferation, R20 salts ([2]; 20, 40, 80 μM): exactly the same activity to inhibit TOV112D cell proliferation; ARPE-19 cell proliferation, R20 salts ([3]; 20, 40, 80 μM): without affecting the normal ARPE-19 cells; pharmacokinetics profile based on AUC values [10]: good pharmacokinetics profiles; tolerance [11]: well tolerated; weight loss [11]: no weight loss
